The results in this text go back to US9232799B2, “N-[(het)arylethyl)] pyrazole(thio)carboxamides and their heterosubstituted analogues” (BAYER INTELLECTUAL PROPERTY GMBH, priority 2010, dated 2016).

Where two headings read alike, the source gives them in different places. Where only a bound is given, the exact number is not on record here.

The test system of one data set is Alternaria solani. Kind of data set: In vivo preventive test on Alternaria solani (tomato). The note with it: 500 ppm of active ingredient, evaluated 7 days after inoculation. An excerpt: One day after this treatment, the plants are inoculated with an aqueous spore suspension of Alternaria solani.
The subject of a further data set is Pyrenophora teres. Put plainly: In vivo preventive test on Pyrenophora teres (barley). The note with it: 500 ppm of active ingredient, evaluated 7-9 days after inoculation. An excerpt:
One day after this treatment, the plants are inoculated with an aqueous spore suspension of Pyrenophora teres.

The subject of data set [1] is Blumeria graminis f.sp. hordei. Kind of data set: In vivo preventive test on Blumeria graminis (barley). The note with it: 500 ppm of active ingredient, evaluated 7 days after inoculation. An excerpt:
(§1) To test for preventive activity, young plants are sprayed with the preparation of active compound or active compound combination at the stated rate of application.

The test system of a further data set is Fusarium graminearum. Kind of data set: microbe, parasite or virus in culture. In kind it is cell-based. The note with it: 50 μM.
The next data set has as its system Septoria tritici. Put plainly: In vivo preventive test on Septoria tritici (wheat). The note with it: 500 ppm of active ingredient, evaluated 21 days after inoculation.
Excerpt: as §1

In a further data set the test system is aflatoxines production. Kind of data set: microbe, parasite or virus in culture. In kind it is cell-based, Aspergillus parasiticus. The note with it: 50 μM.
Data set [2] can be described thus: logP by HPLC on reversed-phase column (C 18), EEC Directive 79/831 Annex V.A8. The class given is physicochemical. How it is done:
In table 1, the logP values were determined in accordance with EEC Directive 79/831 Annex V.A8 by HPLC (High Performance Liquid Chromatography) on a reversed-phase column (C 18), using the method described below: Temperature: 40° C.; […]

For a further data set, the system named is Puccinia triticina. Put plainly: In vivo preventive test on Puccinia triticina (wheat). Particulars: evaluated 8 days after inoculation; for Efficacy: dose 500 ppm of active ingredient.
For the next data set, the system named is Botrytis cinerea. Put plainly: In vivo preventive test on Botrytis cinerea (beans). An excerpt:
To test for preventive activity, young plants are sprayed with the preparation of active compound. After the spray coating has dried on, 2 small pieces of agar covered with growth of Botrytis cinerea are placed on each leaf.

The subject of a further data set is Leptosphaeria nodorum. Put plainly: In vivo preventive test on Leptosphaeria nodorum (wheat). Particulars: 500 ppm of active ingredient, evaluated 7-9 days after inoculation. From the text:
One day after this treatment, the plants are inoculated with an aqueous spore suspension of Leptosphaeria nodorum.

The next data set deals with Sphaerotheca fuliginea. Kind of data set: In vivo preventive test on Sphaerotheca fuliginea (cucumber). Particulars: 500 ppm of active ingredient, evaluated 7 days after inoculation. An excerpt: One day after this treatment, the plants are inoculated with an aqueous spore suspension of Sphaerotheca fuliginea.
Setting [3] is: Botrytis cinerea, 48 h, preventive, beans, 500 ppm of active ingredient, lesion size 2 days after inoculation, read-out: Efficacy.

One may read the logP as a log measure of how a compound divides between an organic and an aqueous phase. A high value points to a more lipophilic compound. On to `COC(CNC(=O)c1c(C(F)F)nn(C)c1F)c1cc(Cl)cc(Cl)c1` (stereo not drawn) [Example 107], for which the Efficacy with Alternaria solani is 90%; with Pyrenophora teres, 95%; in data set [1], 78%; in the data set with Septoria tritici, 86%. Moreover, in the data set on Fusarium graminearum, the “% Inhibition of fungal growth at 50 μM” value was found to be 74%. For the same compound, the “% Inhibition of Aflatoxin at 50 μM” value with aflatoxines production is 98%. The same compound gave a logP in data set [2] of 3.33.
Turning to `Cn1nc(C(F)F)c(C(=O)NC[Si](C)(C)c2ccccc2Cl)c1Cl` [Example 232], the Efficacy in the data set with Puccinia triticina was determined as 95%. This compound also displayed a logP in data set [2] of 3.69.
On to `Cn1cc(C(=O)N(C2CC2)C2CCCC2c2ccc(Cl)cc2Cl)c(C(F)F)n1` (stereo not drawn) [7 from WO-2010/09466, N-cyclopropyl-N-[2-(2,4-dichlorophenyl)cyclopentyl]-3-(difluoromethyl)-1-methyl-1H-pyrazole-4-carboxamide, reference compound], for which the “Efficacy (protection)” value in the data set with Puccinia triticina (preventive, 500 ppm of active ingredient) is “less than 5%”.
As to `Cc1nn(C)c(Cl)c1C(=O)NC(C)(C)C(=O)c1ccc2ccccc2c1` [2-1 from WO-2006/016708, 5-chloro-1,3-dimethyl-N-[2-methyl-1-(2-naphthyl)-1-oxopropan-2-yl]-1H-pyrazole-4-carboxamide, reference compound], the pest or weed control at 500 ppm in the data set with Botrytis cinerea (setting [3]) is less than 30%.
`CC(Cc1ccccc1Cl)NC(=O)c1c(C(F)F)nn(C)c1F` (stereo not drawn) [Example 31]: the Efficacy in the data set on Alternaria solani is reported as 100%; in the data set with Pyrenophora teres, 100%; in the data set on Leptosphaeria nodorum it was 70%; in the data set with Sphaerotheca fuliginea it was 96%. The “% Inhibition of fungal growth at 50 μM” value in the data set with Fusarium graminearum is recorded as 100%. Also, the “% Inhibition of Aflatoxin at 50 μM” value in the data set with aflatoxines production was 100%. Further, in [2], the logP came to 2.94.
Take `Cn1nc(C(F)F)c(C(=O)NC(C)(C)C(=O)c2ncc(C(F)(F)F)cc2Cl)c1Cl` [Example 195]: the Efficacy with Alternaria solani worked out at 95%; in the data set on Pyrenophora teres, 100%; in the data set with Leptosphaeria nodorum, 94%; in the data set on Sphaerotheca fuliginea, 91%. Moreover, the “% Inhibition of fungal growth at 50 μM” value in the data set with Fusarium graminearum is listed as 81%. Moreover, the “% Inhibition of Aflatoxin at 50 μM” value with aflatoxines production was 100%. The compound further had a log partition coefficient (logP) in data set [2] of 3.39.
As to `Cn1cc(C(=O)NCCc2ccc(Cl)cc2Cl)c(C(F)F)n1` [compound CMP3, N-[2-(2,4-dichlorophenyl)ethyl]-3-(difluoromethyl)-1-methyl-1H-pyrazole-4-carboxamide, reference compound], the pest or weed control at 100 ppm with Botrytis cinerea (Botrytis cinerea, 48 h, preventive, beans, 100 ppm of active ingredient, lesion size 2 days after inoculation, read-out: Efficacy) was 0%.
With `Cn1nc(C(F)F)c(C(=O)NC[Si](C)(C)c2ccc(Cl)cc2Cl)c1Cl` [Example 239], the Efficacy in the data set on Alternaria solani worked out at 90%; in the data set with Puccinia triticina it was 70%. In data set [2], this compound had a logP of 4.25.
For the compound `COC(c1ccc(Cl)cc1Cl)C1(NC(=O)c2c(C(F)F)nn(C)c2Cl)CC1` (stereo not drawn) [Example 78], the Efficacy is 100% in the data set with Alternaria solani, 100% in the data set on Pyrenophora teres, 80% with Leptosphaeria nodorum and 100% with Sphaerotheca fuliginea. Also, in the data set with Fusarium graminearum, the “% Inhibition of fungal growth at 50 μM” value turned out to be 100%. In addition, the “% Inhibition of Aflatoxin at 50 μM” value with aflatoxines production is 100%. In data set [2], this compound came in with a logP of 3.70.
In the case of `Cc1nn(C)c(F)c1C(=O)NCCc1ncc(C(F)(F)F)cc1Cl` [J-1 from WO-2004/074280, N-{2-[3-chloro-5-(trifluoromethyl)pyridin-2-yl]ethyl}-5-fluoro-1,3-dimethyl-1H-pyrazole-4-carboxamide, reference compound], the Efficacy is on record as 16% in the data set on Sphaerotheca fuliginea; “less than 20%” with Sphaerotheca fuliginea (listed as J-1); “no protection” in the data set with Botrytis cinerea (preventive, beans, 500 ppm of active ingredient, lesion size 2 days after inoculation, listed as J-1). Besides, the pest or weed control at 500 ppm in the data set on Botrytis cinerea (setting [3]) is 0%.
As for `CC(c1ccccc1Cl)C(C)N(C(=S)c1c(C(F)F)nn(C)c1F)C1CC1` (stereo not drawn) [Example 43], the Efficacy in the data set with Alternaria solani is on record as 90%; in the data set on Pyrenophora teres, 100%; with Leptosphaeria nodorum, 100%; in the data set on Sphaerotheca fuliginea it was 100%. Further, the “% Inhibition of fungal growth at 50 μM” value with Fusarium graminearum is recorded as 90%. Further, in the data set with aflatoxines production, the “% Inhibition of Aflatoxin at 50 μM” value was 100%. Further, the logP in data set [2] is 4.72.
For `Cn1nc(C(F)F)c(C(=O)N(C2CC2)C2CCCCC2(C)c2ccccc2)c1F` (mixture of isomers) [Example 218], the Efficacy in the data set on Alternaria solani is on record as 70%; with Pyrenophora teres, 100%; in the data set on Leptosphaeria nodorum it was 95%; in the data set on Sphaerotheca fuliginea, 94%. In addition, the “% Inhibition of fungal growth at 50 μM” value with Fusarium graminearum came to 99%. Further, the “% Inhibition of Aflatoxin at 50 μM” value in the data set on aflatoxines production came out at 100%.
As to `CC(Cc1c(F)cccc1F)N(C(=S)c1c(C(F)F)nn(C)c1F)C1CC1` (stereo not drawn) [Example 28], the Efficacy with Alternaria solani came to 90%; with Pyrenophora teres, 100%; with Leptosphaeria nodorum, 95%; in the data set on Sphaerotheca fuliginea, 100%. In addition, the logP in [2] amounted to 3.94.
`CC(c1ccccc1Cl)C(C)N(C(=O)c1c(C(F)F)nn(C)c1F)C1CC1` (stereo not drawn) [Example 41]: the Efficacy in the data set with Alternaria solani was found to be 100%; with Pyrenophora teres it was 100%; in the data set with Leptosphaeria nodorum, 95%; in data set [1] it was 100%; in the data set on Septoria tritici it was 93%; in the data set with Sphaerotheca fuliginea it was 74%. Besides, the “% Inhibition of fungal growth at 50 μM” value in the data set with Fusarium graminearum is given as 100%. Besides, the “% Inhibition of Aflatoxin at 50 μM” value in the data set with aflatoxines production came to 100%. Also, the lipophilicity (logP) in data set [2] worked out at 3.87.
In the case of `CC(Cc1ccc(Cl)cc1)N(C(=O)c1cn(C)nc1C(F)F)C1CC1` (stereo not drawn) [F-3 from WO-2007/060164, N-[1-(4-chlorophenyl)propan-2-yl]-N-cyclopropyl-3-(difluoromethyl)-1-methyl-1H-pyrazole-4-carboxamide, reference compound], the pest or weed control at 500 ppm in the data set on Botrytis cinerea (setting [3]) worked out at 0%. Moreover, the Efficacy entry in the data set with Botrytis cinerea (preventive, beans, 500 ppm of active ingredient, lesion size 2 days after inoculation, listed as F-3) is reported as “no protection”.
Turning to `CC(CN(C(=S)c1c(C(F)F)nn(C)c1F)C1CC1)c1ccccc1` (stereo not drawn) [Example 15], the Efficacy with Alternaria solani is given as 90%; with Pyrenophora teres it was 100%; in the data set with Leptosphaeria nodorum it was 100%; in the data set on Sphaerotheca fuliginea, 100%. For the same compound, the “% Inhibition of fungal growth at 50 μM” value in the data set on Fusarium graminearum is on record as 83%. In the data set with aflatoxines production, the “% Inhibition of Aflatoxin at 50 μM” value turned out to be 100%. This compound also showed a logP in data set [2] of 3.92.
Regarding `COC(c1ccc(Cl)cc1Cl)C1(NC(=O)c2c(C(F)F)nn(C)c2F)CC1` (stereo not drawn) [Example 79], the Efficacy in the data set with Alternaria solani turned out to be 100%; with Pyrenophora teres, 100%; with Leptosphaeria nodorum, 80%; in the data set on Sphaerotheca fuliginea it was 100%. Also, the “% Inhibition of fungal growth at 50 μM” value in the data set with Fusarium graminearum came to 98%. For the same compound, the “% Inhibition of Aflatoxin at 50 μM” value in the data set on aflatoxines production is 100%. In addition, in data set [2], the logP is listed as 3.46.
`CN(CCc1cc(Cl)ccc1Cl)C(=S)c1c(C(F)F)nn(C)c1F` [Example 96]: the Efficacy was found to be 95% with Alternaria solani, 100% in the data set on Pyrenophora teres and 90% in the data set with Leptosphaeria nodorum. In the data set with Fusarium graminearum, the “% Inhibition of fungal growth at 50 μM” value is on record as 82%. Further, the “% Inhibition of Aflatoxin at 50 μM” value with aflatoxines production is given as 100%. The logP in [2] came out at 3.87.
In the case of `CC(Cc1ccccc1F)N(C(=O)c1c(C(F)F)nn(C)c1F)C1CC1` (stereo not drawn) [Example 19], the Efficacy in the data set on Alternaria solani stood at 100%; in the data set on Pyrenophora teres it was 100%; with Leptosphaeria nodorum, 70%. Also, in the data set with Fusarium graminearum, the “% Inhibition of fungal growth at 50 μM” value was found to be 100%. For the same compound, in the data set with aflatoxines production, the “% Inhibition of Aflatoxin at 50 μM” value amounted to 100%. The compound further had a logP in [2] of 3.37.
Turning to `Cn1cc(C(=O)N[C@H]2C[C@H]2c2ccc(Cl)cc2)c(C(F)F)n1` [1.001 from WO-2007/134799, N-[(1S,2S-1R′,2R)-2-(4-chlorophenyl)cyclopropyl]-3-(difluoromethyl)-1-methyl-1H-pyrazole-4-carboxamide, reference compound], the Efficacy with Botrytis cinerea (preventive, beans, 100 ppm of active ingredient, lesion size 2 days after inoculation) is given as 8%; with Botrytis cinerea (preventive, beans, 100 ppm of active ingredient, lesion size 2 days after inoculation, listed as 1.001), “less than 10%”; in the data set with Botrytis cinerea (preventive, beans, 500 ppm of active ingredient, lesion size 2 days after inoculation), 89%; in the data set with Botrytis cinerea (preventive, beans, 500 ppm of active ingredient, lesion size 2 days after inoculation, listed as 1.001) it was “at least 85%”.
Turning to `Cc1nn(C)c(F)c1C(=O)NC(C)Cc1ncc(C(F)(F)F)cc1Cl` (stereo not drawn) [compound CMP6, N-{1-[3-chloro-5-(trifluoromethyl)pyridin-2-yl]propan-2-yl}-5-fluoro-1,3-dimethyl-1H-pyrazole-4-carboxamide, reference compound], in the data set with Botrytis cinerea (setting [3]), the pest or weed control at 500 ppm amounted to 0%.
For `Cc1nn(C)c(F)c1C(=O)N(C[Si](C)(C)c1cc(Cl)cc(Cl)c1)C1CC1` [compound CMP2, N-cyclopropyl-N-{[(3,5-dichlorophenyl)(dimethyl)silyl]methyl}-5-fluoro-1,3-dimethyl-1H-pyrazole-4-carboxamide, reference compound], the pest or weed control at 500 ppm in the data set on Botrytis cinerea (Botrytis cinerea, 48 h, dose 500 ppm of active ingredient, table K10, read-out: Efficacy) was 10%; in the data set on Botrytis cinerea (setting [3]), less than 10%.
